Test results as given in patent publication US20230111853A1, “COMPOUNDS MODULATING PROTEIN RECRUITMENT AND/OR DEGRADATION” (Orionis Biosciences, Inc., priority 2019, published 2023).
Read-outs that look alike come from different tables or passages of the source.

Key:
[1] = test system: IKZF1, ASS1 and SALL4 recruitment to CRBN; test: Recruitment assessment: recruitment of any tested substrate from among IKZF1, ASS1 and SALL4; format: cell-based; conditions: any tested substrate at any tested compound concentration
[2] = target: T1, ASS1 recruitment to CRBN (Homo sapiens, UniProt Q96SW2); test: Recruitment Assay (MAPPIT-like): ASS1 recruitment to CRBN; format: cell-based; conditions: HEK293T cells; pSEL-CRBN+pMG1-ASS1; luciferase 24 hours after treatment; read-out: EC50_ASS1
T1 construct: Full size proteins were fused for each of the target proteins tested, except in the case of IKZF1 where isoform 7 was used; expressed in transfected cells; host or cells: HEK293T
Method: (§1) In this experimental set-up, cells were transfected with a construct encoding a CRBN-fusion protein and another one encoding a substrate-fusion protein. Test compound activity was assessed with increasing concentrations of test compounds (dose-response studies) to monitor the ability to promote CRBN-ligand-induced protein interaction.
(§2) Full size proteins were fused for each of the target proteins tested, except in the case of IKZF1 where isoform 7 was used. For the study, the following were used: IKZF1 recruitment: pSEL-CRBN+pMG1-IKZF1(isoform 7); ASS1 recruitment: pSEL-CRBN+pMG1-ASS1. SALL4 recruitment: pSEL-SALL4+pMG1-CRBN. […] Luciferase activity was measured 24 hours after test compound treatment using the Luciferase Assay System kit (PROMEGA, Madison, Wis.) with an Ensight plate reader (PERKIN ELMER LIFE SCIENCES, Waltham, Mass.). Data points depicted fold induction of the average luciferase activity of triplicate samples from EPO+test compound treated cells versus EPO only treated cells. Error bars represent standard deviations. Curves were fit using 4-parameter nonlinear regression in […] PRISM software.

[3] = target: T2, IKZF1 (isoform 7) recruitment to CRBN (Homo sapiens, UniProt Q96SW2); test: Recruitment Assay (MAPPIT-like): IKZF1 recruitment to CRBN; format: cell-based; conditions: HEK293T cells; pSEL-CRBN+pMG1-IKZF1(isoform 7); luciferase 24 hours after treatment; read-out: EC50_IKZF1
T2 construct: Full size proteins were fused for each of the target proteins tested, except in the case of IKZF1 where isoform 7 was used; expressed in transfected cells; host or cells: HEK293T
Method: as §1, §2

[4] = target: T3, SALL4 recruitment to CRBN (Homo sapiens, UniProt Q96SW2); test: Recruitment Assay (MAPPIT-like): SALL4 recruitment to CRBN; format: cell-based; conditions: HEK293T cells; pSEL-SALL4+pMG1-CRBN; luciferase 24 hours after treatment; read-out: EC50_SALL4
T3 construct: Full size proteins were fused for each of the target proteins tested, except in the case of IKZF1 where isoform 7 was used; expressed in transfected cells; host or cells: HEK293T
Method: as §1, §2

[5] = target: CRBN (Homo sapiens, UniProt Q96SW2); test: Competition Assay (MAPPIT-like, competition with trimethoprim-lenalidomide hybrid ligand for binding to CRBN in cells)
[6] = read-out: IC50 Competition, HEK293T cells, competition with 300 nM trimethoprim-lenalidomide hybrid ligand, luciferase 24 hours after compound treatment

| SMILES | EC50 [2] [nM] | EC50 [3] [nM] | EC50 [4] [nM] | IC50 [5, 6] [µM] | IC50 [5] [µM] | Recruitment Assessment [1] |
| --- | --- | --- | --- | --- | --- | --- |
| Nc1cccc2nnn(C3CCC(=O)NC3=O)c(=O)c12 (stereo not drawn) [C59904, 3-(5-amino-4-oxo-1,2,3-benzotriazin-3-yl)piperidine-2,6-dione] | 687 | 122 | 330 |  |  | TRUE |
| Cc1cccc2nnn(C3CCC(=O)NC3=O)c(=O)c12 (stereo not drawn) [C13247, 3-(5-methyl-4-oxo-1,2,3-benzotriazin-3-yl)piperidine-2,6-dione] | 8550 | 2880 | 402 |  |  | TRUE |
| CC1c2ccccc2C(=O)N1C1CCC(=O)NC1=O (stereo not drawn) [C51383, 3-(1-methyl-3-oxo-isoindolin-2-yl)piperidine-2,6-dione] | 1700 | 1520 | 59.3 |  |  | TRUE |
| Cc1cccc2c(=O)n(C3CCC(=O)NC3=O)nnc12 (stereo not drawn) [C35830, 3-(8-methyl-4-oxo-1,2,3-benzotriazin-3-yl)piperidine-2,6-dione] | 5560 |  | 588 |  |  | TRUE |
| O=C1CC/C(=C/c2ccccc2)C(=O)N1 [C68121, (3Z)-3-benzylidenepiperidine-2,6-dione] |  |  |  | 6.5 |  | FALSE |
| O=C1CCC(N2Cc3c(ccc4c3OCO4)C2=O)C(=O)N1 (stereo not drawn) [C67858, 3-(6-oxo-8H-[1,3]dioxolo[4,5-e]isoindol-7-yl)piperidine-2,6-dione] | 884 | 569 | 29.3 |  |  | TRUE |
| Cc1ccc2c(c1)C(=O)N(c1c(C(C)C)cccc1C(C)C)C2=O [5HPP-33, 2-(2,6-diisopropylphenyl)-5-methyl-isoindoline-1,3-dione, reference compound] |  |  |  | 5.11 |  | FALSE |
| O=C1CCC(n2nnc3ccccc3c2=O)C(=O)N1 (stereo not drawn) [C21223, 3-(4-oxo-1,2,3-benzotriazin-3-yl)piperidine-2,6-dione] |  |  | 517 |  | 2.24 | TRUE |
| O=C1CCC(N2C(=O)C3CCCCC3C2=O)C(=O)N1 (stereo not drawn) [C24191, 2-(2,6-dioxo-3-piperidyl)-3a,4,5,6,7,7a-hexahydroisoindole-1,3-dione] |  |  |  | 17.7 |  | FALSE |
| O=C1CCC(N2Cc3c(cccc3-c3ccccc3)C2=O)C(=O)N1 (stereo not drawn) [C48014, 3-(1-oxo-4-phenyl-isoindolin-2-yl)piperidine-2,6-dione] | 921 | 1240 | 62.1 |  |  | TRUE |
| O=C1CCC(Nc2ncc3ccccc3n2)C(=O)N1 (stereo not drawn) [C97402, 3-(quinazolin-2-ylamino)piperidine-2,6-dione] |  |  |  | 6.32 |  | FALSE |

Second part, led by results:

| EC50 [2] [nM] | EC50 [3] [nM] | EC50 [4] [nM] | IC50 [5, 6] [µM] | IC50 [5] [µM] | SMILES | Recruitment Assessment [1] |
| --- | --- | --- | --- | --- | --- | --- |
| 368 | 77.4 | < 13.7 |  |  | Cc1cccc2c1CN(C1CCC(=O)NC1=O)C2=O (stereo not drawn) [C28558, 3-(4-methyl-1-oxo-isoindolin-2-yl)piperidine-2,6-dione] | TRUE |
| 653 | 1610 | < 13.7 |  |  | Cc1ccc2c(c1)CN(C1CCC(=O)NC1=O)C2=O (stereo not drawn) [C28577, 3-(5-methyl-1-oxo-isoindolin-2-yl)piperidine-2,6-dione] | TRUE |
|  |  |  | 0.199 |  | O=C1CCC(N2Cc3ccc(NCC(=O)Nc4ccccc4)cc3C2=O)C(=O)N1 (stereo not drawn) [C84965, 2-[[2-(2,6-dioxo-3-piperidyl)-3-oxo-isoindolin-5-yl]amino]-N-phenyl-acetamide] | TRUE |
| 9420 |  | 387 |  |  | N#Cc1ccc(Nc2ccc3c(c2)CN(C2CCC(=O)NC2=O)C3=O)nn1 (stereo not drawn) [C80378, 6-[[2-(2,6-dioxo-3-piperidyl)-1-oxo-isoindolin-5-yl]amino] pyridazine-3-carbonitrile] | TRUE |
| 259 | 58.7 | < 13.7 |  |  | O=C1CCC(N2Cc3c(Cl)cccc3C2=O)C(=O)N1 (stereo not drawn) [C24031, 3-(4-chloro-1-oxo-isoindolin-2-yl)piperidine-2,6-dione] | TRUE |
| 80.1 | < 13.7 |  |  |  | Cc1ccc(NC(=O)NCc2ccc3c(c2)CN(C2CCC(=O)NC2=O)C3=O)cc1Cl (stereo not drawn) [CC-885, 1-(3-chloro-4-methyl-phenyl)-3-[[2-(2,6-dioxo-3-piperidyl)-1-oxo-isoindolin-5-yl]methyl]urea, reference compound] | TRUE |
